# Measured values: patent publication US20250197396A1, “COMPOUNDS FOR INHIBITING INOSITOL HEXAKISPHOSPHATE KINASE (IP6K) AND METHODS OF USE THEREOF” (Lieber Institute, Inc., priority 2020, published 2025)
# pIC50: −log10 of the molar value.
# Experiments:
# IP6K1 = IP6K1 (Homo sapiens (Human), UniProt Q92551); experiment: IP6K1 IC50 of compounds of Formula (IA) and Formula (IB); type: biochemical
# Mice treated with HFD = conditions: HFD 8 weeks then daily intraperitoneal 20 mg/kg TNP and HFD for 18 days; cited from earlier work
# Sequence of IP6K1 (Q92551 whole entry, species assumed): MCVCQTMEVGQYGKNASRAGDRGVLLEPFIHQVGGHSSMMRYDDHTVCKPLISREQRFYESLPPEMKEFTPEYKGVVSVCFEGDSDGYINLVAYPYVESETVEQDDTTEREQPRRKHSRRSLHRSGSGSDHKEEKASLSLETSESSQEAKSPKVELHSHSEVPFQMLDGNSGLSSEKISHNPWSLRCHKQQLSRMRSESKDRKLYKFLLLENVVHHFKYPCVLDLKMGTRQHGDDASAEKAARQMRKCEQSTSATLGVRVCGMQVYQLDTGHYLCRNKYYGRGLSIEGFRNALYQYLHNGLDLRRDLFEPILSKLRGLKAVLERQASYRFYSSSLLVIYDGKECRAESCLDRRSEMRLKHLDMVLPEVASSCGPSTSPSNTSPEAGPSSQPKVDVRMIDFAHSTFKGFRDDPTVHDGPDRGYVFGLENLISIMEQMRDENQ
SMILES,IP6K1 IC50 (IP6K1),further results
"O=C(O)c1ccc2c(c1)C1(CCN(S(=O)(=O)c3ccc(Cl)cc3)CC1)C(=O)N2 [Cmpd 1a, 1′-((4-chlorophenyl)sulfonyl)-2-oxospiro[indoline-3,4′-piperidine]-5-carboxylic acid]",+ +,
"O=C(O)c1ccc2c(c1)C1(CCN(C(=O)c3ccc(Cl)cc3)CC1)C(=O)N2 [Cmpd 2a, 1′-(4-chlorobenzoyl)-2-oxospiro[indoline-3,4′-piperidine]-5-carboxylic acid]",+ + +,
"COC(=O)c1ccc2c(c1)C1(CCN(C(=O)c3ccc(Cl)cc3)CC1)C(=O)N2 [Cmpd 3a, Methyl 1′-(4-chlorobenzoyl)-2-oxospiro[indoline-3,4′-piperidine]-5-carboxylate]",,pIC50 (IP6K1): 4.52 to 5.52
"O=C(O)c1ccc2c(c1)C1(CCN(C(=O)Cc3ccc(Cl)cc3)CC1)C(=O)N2 [Cmpd 4a, 1′-(2-(4-chlorophenyl)acetyl)-2-oxospiro[indoline-3,4′-piperidine]-5-carboxylic acid]",+ +,
"O=C(O)c1ccc2c(c1)C1(CCN(Cc3ccc(Cl)cc3)CC1)C(=O)N2 [Cmpd 5a, 1′-(4-chlorobenzyl)-2-oxospiro[indoline-3,4′-piperidine]-5-carboxylic acid]",+ +,
"O=C(O)c1ccc2c(c1)C1(CCN(C(=O)Nc3ccc(Cl)cc3)CC1)C(=O)N2 [Cmpd 7a, 1′-((4-chlorophenyl)carbamoyl)-2-oxospiro[indoline-3,4′-piperidine]-5-carboxylic acid]",+ + +,
"O=C(O)c1ccc2c(c1)C1(CCN(C(=O)c3ccc(C(F)(F)F)cc3)CC1)C(=O)N2 [Cmpd 8a, 2-oxo-1′-(4-(trifluoromethyl)benzoyl)spiro[indoline-3,4′-piperidine]-5-carboxylic acid]",+ + +,
"O=C(O)c1ccc2c(c1)C1(CCN(C(=O)COc3ccc(Cl)cc3)CC1)C(=O)N2 [Cmpd 9a, 1′-(2-(4-chlorophenoxy)acetyl)-2-oxospiro[indoline-3,4′-piperidine]-5-carboxylic acid]",+ +,
"O=C(O)c1ccc2c(c1)C1(CCN(C(=O)C3CC3)CC1)C(=O)N2 [Cmpd 10a, 1′-(cyclopropanecarbonyl)-2-oxospiro[indoline-3,4′-piperidine]-5-carboxylic acid]",,pIC50 (IP6K1): 4.52 to 5.52
"CC(=O)N1CCC2(CC1)C(=O)Nc1ccc(C(=O)O)cc12 [Cmpd 12a, 1′-acetyl-2-oxospiro[indoline-3,4′-piperidine]-5-carboxylic acid]",,pIC50 (IP6K1): 4.52 to 5.52
"CC(C)C(=O)N1CCC2(CC1)C(=O)Nc1ccc(C(=O)O)cc12 [Cmpd 13a, 1′-isobutyryl-2-oxospiro[indoline-3,4′-piperidine]-5-carboxylic acid]",,pIC50 (IP6K1): 4.52 to 5.52
"O=C(O)c1ccc2c(c1)C1(CCN(C(=O)c3ccccc3Cl)CC1)C(=O)N2 [Cmpd 14a, 1′-(2-chlorobenzoyl)-2-oxospiro[indoline-3,4′-piperidine]-5-carboxylic acid]",+ +,
"O=C(O)c1ccc2c(c1)C1(CCN(Cc3ccccc3Cl)CC1)C(=O)N2 [Cmpd 15a, 1′-(2-chlorobenzyl)-2-oxospiro[indoline-3,4′-piperidine]-5-carboxylic acid]",+ +,
"O=C(O)c1ccc2[nH]c(=O)n(CC3CCN(Cc4ccc(Cl)cc4Cl)C3)c2c1 (stereo not drawn) [Cmpd 18b, 3-((1-(2,4-dichlorobenzyl)pyrrolidin-3-yl)methyl)-2-oxo-2,3-dihydro-1H-benzo[d]imidazole-5-carboxylic acid]",,pIC50 (IP6K1): 4.52 to 5.52
"O=[N+]([O-])c1ccc(CNc2nc(NCc3cccc(C(F)(F)F)c3)nc3nc[nH]c23)cc1 [TNP, N2-(m-trifluorobenzyl)-N6-(p-nitrobenzyl)purine]",,glucose tolerance and insulin sensitivity (Mice treated with HFD): improved; serum insulin levels (Mice treated with HFD): lower

# Second part, led by results:
IP6K1 IC50 (IP6K1),SMILES,further results
+ +,"O=C(O)c1ccc2[nH]c(=O)n(C3CCN(C(=O)c4ccccc4Cl)CC3)c2c1 [Cmpd 1b, 3-(1-(2-chlorobenzoyl)piperidin-4-yl)-2-oxo-2,3-dihydro-1H-benzo[d]imidazole-5-carboxylic acid]",
+ + +,"O=C(O)c1ccc2[nH]c(=O)n(C3CCN(C(=O)c4ccc(Cl)cc4Cl)CC3)c2c1 [Cmpd 3b, 3-(1-(2,4-dichlorobenzoyl)piperidin-4-yl)-2-oxo-2,3-dihydro-1H-benzo[d]imidazole-5-carboxylic acid]",
+ + +,"O=C(O)c1ccc2[nH]c(=O)n([C@H]3CC[C@H](Oc4ncc(Cl)cc4Cl)CC3)c2c1 [Cmpd 5b, 3-((1r,4r)-4-((3,5-dichloropyridin-2-yl)oxy)cyclohexyl)-2-oxo-2,3-dihydro-1H-benzo[d]imidazole-5-carboxylic acid]",
+ + +,"O=C(O)c1ccc2c(c1)C1(CCN(C(=O)c3ncc(Cl)cc3Cl)CC1)C(=O)N2 [Cmpd 6a, 1′-(3,5-dichloropicolinoyl)-2-oxospiro[indoline-3,4′-piperidine]-5-carboxylic acid]",
+ + +,"O=C(O)c1ccc2[nH]c(=O)n([C@H]3CC[C@@H](Oc4ncc(Cl)cc4Cl)CC3)c2c1 [Cmpd 6b, 3-((1s,4s)-4-((3,5-dichloropyridin-2-yl)oxy)cyclohexyl)-2-oxo-2,3-dihydro-1H-benzo[d]imidazole-5-carboxylic acid]",
+ + +,"O=C(O)c1cc2c(cc1F)[nH]c(=O)n2[C@H]1CC[C@H](Oc2ncc(Cl)cc2Cl)CC1 [Cmpd 7b, 3-((1r,4r)-4-((3,5-dichloropyridin-2-yl)oxy)cyclohexyl)-6-fluoro-2-oxo-2,3-dihydro-1H-benzo[d]imidazole-5-carboxylic acid]",
+ +,"O=C(O)c1ccc2[nH]c(=O)n(CCOc3ccc(Cl)cc3)c2c1 [Cmpd 8b, 3-(2-(4-chlorophenoxy)ethyl)-2-oxo-2,3-dihydro-1H-benzo[d]imidazole-5-carboxylic acid]",
+ + +,"O=C(O)c1ccc2[nH]c(=O)n(CCCOc3ncc(Cl)cc3Cl)c2c1 [Cmpd 9b, 3-(3-((3,5-dichloropyridin-2-yl)oxy)propyl)-2-oxo-2,3-dihydro-1H-benzo[d]imidazole-5-carboxylic acid]",
+ +,"O=C(O)c1ccc2[nH]c(=O)n(C3CN(C(=O)c4ccc(Cl)cc4Cl)C3)c2c1 [Cmpd 10b, 3-(1-(2,4-dichlorobenzoyl)azetidin-3-yl)-2-oxo-2,3-dihydro-1H-benzo[d]imidazole-5-carboxylic acid]",
+ +,"O=C(O)c1ccc2[nH]c(=O)n(C3CN(Cc4ccc(Cl)cc4Cl)C3)c2c1 [Cmpd 11b, 3-(1-(2,4-dichlorobenzyl)azetidin-3-yl)-2-oxo-2,3-dihydro-1H-benzo[d]imidazole-5-carboxylic acid]",
+ +,"O=C(O)c1ccc2[nH]c(=O)n([C@H]3CCN(C(=O)c4ccc(Cl)cc4Cl)C3)c2c1 [Cmpd 12b, (S)-3-(1-(2,4-dichlorobenzoyl)pyrrolidin-3-yl)-2-oxo-2,3-dihydro-1H-benzo[d]imidazole-5-carboxylic acid]",
+ +,"O=C(O)c1ccc2[nH]c(=O)n([C@H]3CCN(Cc4ccc(Cl)cc4Cl)C3)c2c1 [Cmpd 13b, (S)-3-(1-(2,4-dichlorobenzyl)pyrrolidin-3-yl)-2-oxo-2,3-dihydro-1H-benzo[d]imidazole-5-carboxylic acid]",
+ +,"O=C(O)c1ccc2[nH]c(=O)n([C@@H]3CCN(C(=O)c4ccc(Cl)cc4Cl)C3)c2c1 [Cmpd 14b, (R)-3-(1-(2,4-dichlorobenzoyl)pyrrolidin-3-yl)-2-oxo-2,3-dihydro-1H-benzo[d]imidazole-5-carboxylic acid]",
+ +,"O=C(O)c1ccc2[nH]c(=O)n([C@@H]3CCN(Cc4ccc(Cl)cc4Cl)C3)c2c1 [Cmpd 15b, (R)-3-(1-(2,4-dichlorobenzyl)pyrrolidin-3-yl)-2-oxo-2,3-dihydro-1H-benzo[d]imidazole-5-carboxylic acid]",
+ +,"O=C(O)c1ccc2c(c1)[nH]c(=O)n2C1CCN(C(=O)c2ccc(Cl)cc2Cl)CC1 [Cmpd 16b, 1-(1-(2,4-dichlorobenzoyl)piperidin-4-yl)-2-oxo-2,3-dihydro-1H-benzo[d]imidazole-5-carboxylic acid]",
+ + +,"O=C(O)c1ccc2c(c1)C1(CCN(C(=O)c3ccc(Cl)cc3Cl)CC1)C(=O)N2 [Cmpd 17a, 1′-(2,4-dichlorobenzoyl)-2-oxospiro[indoline-3,4′-piperidine]-5-carboxylic acid]",
+ +,"O=C(O)c1ccc2[nH]c(=O)n(CC3CCN(C(=O)c4ccc(Cl)cc4Cl)C3)c2c1 (stereo not drawn) [Cmpd 19b, 3-((1-(2,4-dichlorobenzoyl)pyrrolidin-3-yl)methyl)-2-oxo-2,3-dihydro-1H-benzo[d]imidazole-5-carboxylic acid]",
